Assay results as given in patent US20180289656A1, “COMPOSITIONS AND METHODS TO TREAT URINARY TRACT INFECTIONS” (Hennepin Life Sciences, LLC, priority 2015, published 2018).

Key:
Format in all cases: cell-based
S. aureus biofilms = assay: biofilm formation by crystal violet staining, absorbance at 595 nm; details: 10 fold lower GML concentrations than necessary to inhibit bacterial growth
Experimental: (§1) To directly assess the effect of GML on the formation of biofilms, 96 well plastic microtiter plates were inoculated with approximately 10^6/mL of one of three strains of S. aureus (MN8, a methicillin sensitive strain; MNWH, a methicillin resistant strain; or MW2, a methicillin resistant strain), or with non-typable Haemophilus influenzae. Wells were cultured stationary at 37° C. for 24 and 48. As a control, in one set of three wells for each microbe, the wells were agitated 3 times by pipetting up and down. The bactericidal activity of GML was determined by measuring CFU/mL in supernatants. After removal of supernatants, wells were washed three times with PBS to remove unbound cells, and were then treated with crystal violet for 30 minutes. Wells were again washed three times with PBS to remove unbound crystal violet. Finally, wells were treated with ethanol to solubilize biofilm associated crystal violet. Absorbance at 595 nm was determined by an ELISA reader to measure biofilm formation.

[1] = tested on: S. aureus (MN8, MNWH, MW2); assay: bactericidal activity / growth measured as CFU/mL in supernatants of microtiter plate cultures; details: GML at 500 μg/mL; all three S. aureus strains (MN8, MNWH, MW2); both 24 and 48 hours
Experimental: as §1

S. aureus = assay: bactericidal activity against 54 strains of S. aureus
Excerpt: 5% w/v GML nonaqueous gel is bactericidal for 54 strains of S. aureus, including highly antibiotic resistant organisms and multiple clonal groups. GML is antimicrobial on contact, killing the organisms in only a few minutes. The estimated chance of S. aureus developing resistance to GML is […]; thus resistance is highly unlikely.

Glycerol monolaurate [GML]
biofilm formation (crystal violet staining of retained biofilm material) (S. aureus biofilms): significantly inhibited | growth as measured by CFU/mL [1]: completely inhibited | time to kill the organisms (antimicrobial on contact) (S. aureus): a few minutes
